Assay type in all cases: functional
The nature of assay [1]: cytotoxicity toward NIH3T3 fibroblasts, dose response, counter-screen, cell-based, ATP luminescence, mouse fibroblasts (AID 2010).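 Further: cells exposed to compound for about 90 hours before reading.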
In assay [2] the target is T1, Sentrin-specific protease 8 (Homo sapiens, UniProt Q96LD8).
T1 sequence (Q96LD8 whole entry): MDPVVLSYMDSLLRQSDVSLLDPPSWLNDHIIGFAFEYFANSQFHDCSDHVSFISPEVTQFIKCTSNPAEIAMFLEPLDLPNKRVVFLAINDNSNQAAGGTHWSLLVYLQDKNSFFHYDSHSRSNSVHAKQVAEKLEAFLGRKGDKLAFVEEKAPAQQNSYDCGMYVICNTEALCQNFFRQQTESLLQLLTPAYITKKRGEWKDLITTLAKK
The assay can be described thus: SENP8 protease inhibitors, SAR follow-up, biochemical, luminescence (AID 504501).

Assay [3] addresses T2, Caspase-3 (Homo sapiens, UniProt P42574).
T2 sequence (P42574 whole entry): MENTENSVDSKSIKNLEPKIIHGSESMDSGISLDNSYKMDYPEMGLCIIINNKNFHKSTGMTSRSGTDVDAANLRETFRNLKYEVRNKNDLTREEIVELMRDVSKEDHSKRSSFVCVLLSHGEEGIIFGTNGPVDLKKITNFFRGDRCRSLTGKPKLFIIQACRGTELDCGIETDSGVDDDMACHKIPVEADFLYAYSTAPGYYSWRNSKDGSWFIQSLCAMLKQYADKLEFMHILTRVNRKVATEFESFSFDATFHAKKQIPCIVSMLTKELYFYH
The assay can be described thus: SAR Analysis of small molecule inhibitors of Sentrin-specific proteases (SENPs) using a Caspase-3 Selectivity assay. [Related pubchem assays (depositor defined):AID2540, AID2599, AID434973, AID489001].

For assay [4], the target named is Matrix metalloproteinase-14 (Homo sapiens, UniProt P50281). The assay is described as follows: Dose Response confirmation of uHTS hits for a small molecule inhibitors of MT1-MMP activation in a fluorescence assay set 2.
Assay [5] addresses T3, Dual specificity protein phosphatase 6 (Rattus norvegicus, UniProt Q64346).
T3 sequence (Q64346 whole entry): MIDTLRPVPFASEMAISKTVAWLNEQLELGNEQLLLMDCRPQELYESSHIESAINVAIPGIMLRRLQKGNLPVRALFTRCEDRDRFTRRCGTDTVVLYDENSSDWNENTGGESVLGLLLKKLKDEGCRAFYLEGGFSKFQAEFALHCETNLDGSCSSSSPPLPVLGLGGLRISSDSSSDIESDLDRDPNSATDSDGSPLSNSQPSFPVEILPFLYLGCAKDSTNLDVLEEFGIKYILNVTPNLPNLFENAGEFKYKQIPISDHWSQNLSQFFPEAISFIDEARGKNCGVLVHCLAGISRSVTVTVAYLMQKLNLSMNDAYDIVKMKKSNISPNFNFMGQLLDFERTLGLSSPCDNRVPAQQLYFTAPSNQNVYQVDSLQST

Assay [6] deals with Megakaryocyte-associated tyrosine-protein kinase (Homo sapiens, UniProt P42679).
Chain of Megakaryocyte-associated tyrosine-protein kinase (P42679 whole entry): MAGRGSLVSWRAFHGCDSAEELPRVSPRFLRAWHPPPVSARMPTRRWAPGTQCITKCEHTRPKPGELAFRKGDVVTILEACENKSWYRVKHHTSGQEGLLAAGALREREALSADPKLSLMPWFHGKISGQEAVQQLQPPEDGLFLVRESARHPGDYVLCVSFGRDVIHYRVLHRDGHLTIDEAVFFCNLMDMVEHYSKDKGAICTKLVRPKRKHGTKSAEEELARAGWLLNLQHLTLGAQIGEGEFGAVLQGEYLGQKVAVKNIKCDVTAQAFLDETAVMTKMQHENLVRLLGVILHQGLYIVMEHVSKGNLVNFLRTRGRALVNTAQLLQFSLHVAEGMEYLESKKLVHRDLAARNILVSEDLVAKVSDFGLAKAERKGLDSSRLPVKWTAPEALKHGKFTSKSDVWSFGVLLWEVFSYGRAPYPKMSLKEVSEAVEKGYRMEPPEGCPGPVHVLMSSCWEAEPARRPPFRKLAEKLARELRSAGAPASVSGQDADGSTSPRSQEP
Assay [7] addresses Proto-oncogene tyrosine-protein kinase receptor Ret (Homo sapiens, UniProt P07949).
Assay [8] deals with Tyrosine-protein kinase SYK (Homo sapiens, UniProt P43405).
Assay [9] deals with Testis-specific serine/threonine-protein kinase 2 (Homo sapiens, UniProt Q96PF2).
Chain of Testis-specific serine/threonine-protein kinase 2 (Q96PF2 whole entry): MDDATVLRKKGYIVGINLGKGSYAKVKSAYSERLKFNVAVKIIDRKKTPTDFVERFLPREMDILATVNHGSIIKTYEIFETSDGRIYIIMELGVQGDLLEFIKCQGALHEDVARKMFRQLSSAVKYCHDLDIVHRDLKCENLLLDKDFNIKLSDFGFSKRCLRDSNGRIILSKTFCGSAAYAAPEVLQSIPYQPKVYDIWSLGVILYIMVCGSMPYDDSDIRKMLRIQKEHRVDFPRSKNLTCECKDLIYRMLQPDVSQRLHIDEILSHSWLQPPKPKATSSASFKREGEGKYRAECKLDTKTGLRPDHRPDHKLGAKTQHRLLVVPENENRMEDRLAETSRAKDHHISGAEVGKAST
Assay [10] concerns the target Cyclin-dependent kinase 2 (Homo sapiens, UniProt P24941).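 Further: CDK2 measured as one member of a broad kinome profiling panel.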
Assay [11] concerns the target Serine/threonine-protein kinase pim-1 (Homo sapiens, UniProt P11309).
The target of assay [12] is Tyrosine-protein kinase BTK (Homo sapiens, UniProt Q06187).
Chain of Tyrosine-protein kinase BTK (Q06187 whole entry): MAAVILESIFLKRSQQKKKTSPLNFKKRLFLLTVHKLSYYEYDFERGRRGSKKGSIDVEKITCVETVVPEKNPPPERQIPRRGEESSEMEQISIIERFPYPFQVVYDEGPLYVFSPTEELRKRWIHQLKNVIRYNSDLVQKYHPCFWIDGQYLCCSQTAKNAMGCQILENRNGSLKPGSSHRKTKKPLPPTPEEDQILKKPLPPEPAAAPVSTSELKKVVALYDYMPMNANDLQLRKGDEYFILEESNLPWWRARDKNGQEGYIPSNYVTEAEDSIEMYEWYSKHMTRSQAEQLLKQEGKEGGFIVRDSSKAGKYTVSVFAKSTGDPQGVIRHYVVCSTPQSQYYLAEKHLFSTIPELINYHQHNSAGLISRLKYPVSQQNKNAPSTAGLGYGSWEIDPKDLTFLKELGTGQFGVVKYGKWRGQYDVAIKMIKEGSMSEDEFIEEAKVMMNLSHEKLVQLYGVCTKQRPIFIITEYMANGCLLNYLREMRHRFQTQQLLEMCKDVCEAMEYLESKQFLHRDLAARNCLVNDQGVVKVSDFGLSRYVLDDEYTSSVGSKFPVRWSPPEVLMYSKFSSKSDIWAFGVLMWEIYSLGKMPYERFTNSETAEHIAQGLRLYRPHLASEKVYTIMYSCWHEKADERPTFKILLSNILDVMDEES
Assay [13] has as its target Mast/stem cell growth factor receptor Kit (Homo sapiens, UniProt P10721).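 Further: KIT entry within a kinase panel assay.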
The target of assay [14] is Serine/threonine-protein kinase PAK 4 (Homo sapiens, UniProt O96013).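 Further: value obtained within a kinome profiling panel in which PAK4 was one of the panel members.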
Assay [15] concerns the target Mitogen-activated protein kinase 9 (Homo sapiens, UniProt P45984).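 Further: value from a kinome panel profiling assay, MAPK9 panel entry.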
The target in assay [16] is High affinity nerve growth factor receptor (Homo sapiens, UniProt P04629).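 Further: NTRK1 tested as one member of a kinome-wide profiling panel.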
Assay [17] has as its target Mitogen-activated protein kinase kinase kinase kinase 2 (Homo sapiens, UniProt Q12851).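 Further: measured as one member of a kinome-wide kinase panel, with MAP4K2 as the panel entry.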
The target of assay [18] is Receptor tyrosine-protein kinase erbB-2 (Homo sapiens, UniProt P04626). The assay is described as follows: Navigating the Kinome. Panel member name: ERBB2.
Chain of Receptor tyrosine-protein kinase erbB-2 (P04626 whole entry): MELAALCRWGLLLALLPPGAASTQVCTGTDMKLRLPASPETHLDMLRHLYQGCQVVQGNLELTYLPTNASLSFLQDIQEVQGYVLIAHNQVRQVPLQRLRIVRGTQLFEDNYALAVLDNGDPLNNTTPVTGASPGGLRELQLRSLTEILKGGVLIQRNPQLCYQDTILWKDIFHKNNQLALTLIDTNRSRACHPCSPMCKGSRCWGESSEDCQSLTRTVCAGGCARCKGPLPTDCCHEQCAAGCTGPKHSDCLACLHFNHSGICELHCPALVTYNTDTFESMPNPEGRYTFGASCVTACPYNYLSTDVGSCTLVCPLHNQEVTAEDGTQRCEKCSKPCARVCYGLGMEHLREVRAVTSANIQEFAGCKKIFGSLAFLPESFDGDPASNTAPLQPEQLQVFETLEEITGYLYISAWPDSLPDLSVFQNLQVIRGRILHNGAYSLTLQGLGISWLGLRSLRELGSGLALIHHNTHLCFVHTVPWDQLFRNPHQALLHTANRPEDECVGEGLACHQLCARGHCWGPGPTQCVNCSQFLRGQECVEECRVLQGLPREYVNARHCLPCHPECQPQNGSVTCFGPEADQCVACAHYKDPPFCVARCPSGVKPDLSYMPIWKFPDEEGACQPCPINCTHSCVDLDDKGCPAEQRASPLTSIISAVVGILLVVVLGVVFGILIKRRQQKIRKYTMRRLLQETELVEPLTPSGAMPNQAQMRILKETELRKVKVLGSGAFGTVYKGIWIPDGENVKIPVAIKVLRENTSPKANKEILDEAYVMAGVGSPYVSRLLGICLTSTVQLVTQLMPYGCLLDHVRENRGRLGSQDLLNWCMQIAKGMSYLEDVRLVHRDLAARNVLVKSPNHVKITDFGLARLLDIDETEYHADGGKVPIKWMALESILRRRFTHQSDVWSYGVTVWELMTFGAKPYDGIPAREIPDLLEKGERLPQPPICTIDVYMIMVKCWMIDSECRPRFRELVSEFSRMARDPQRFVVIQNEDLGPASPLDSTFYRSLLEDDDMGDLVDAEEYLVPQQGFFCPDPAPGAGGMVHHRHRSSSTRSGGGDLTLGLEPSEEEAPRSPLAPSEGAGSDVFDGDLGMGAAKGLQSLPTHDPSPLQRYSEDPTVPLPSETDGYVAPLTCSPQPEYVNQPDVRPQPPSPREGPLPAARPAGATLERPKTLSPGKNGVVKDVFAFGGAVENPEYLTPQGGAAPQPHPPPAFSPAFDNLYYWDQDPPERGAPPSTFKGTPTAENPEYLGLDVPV
The target of assay [19] is Tyrosine-protein kinase ABL1 (Homo sapiens, UniProt P00519).
Assay [20] has as its target Cyclin-dependent kinase 5 (Homo sapiens, UniProt Q00535).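 Further: CDK5 measured as one member of a kinase profiling panel.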
For assay [21], the target named is Insulin-like growth factor 1 receptor (Homo sapiens, UniProt P08069). The assay can be described thus: Navigating the Kinome. Panel member name: IGF1R.
The target of assay [22] is Misshapen-like kinase 1 (Homo sapiens, UniProt Q8N4C8).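 Further: kinome panel screen with MINK as the panel member.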
Assay [23] deals with Protein kinase C iota type (Homo sapiens, UniProt P41743).
Assay [24] has as its target Mitogen-activated protein kinase kinase kinase kinase 5 (Homo sapiens, UniProt Q9Y4K4).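 Further: measured as one member of a kinome-spanning kinase panel.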
Assay [25] concerns the target Tyrosine-protein kinase Fer (Homo sapiens, UniProt P16591).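 Further: FER tested as one member of a kinome panel.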
In assay [26] the target is Calcium/calmodulin-dependent protein kinase type 1 (Homo sapiens, UniProt Q14012).
Chain of Calcium/calmodulin-dependent protein kinase type 1 (Q14012 whole entry): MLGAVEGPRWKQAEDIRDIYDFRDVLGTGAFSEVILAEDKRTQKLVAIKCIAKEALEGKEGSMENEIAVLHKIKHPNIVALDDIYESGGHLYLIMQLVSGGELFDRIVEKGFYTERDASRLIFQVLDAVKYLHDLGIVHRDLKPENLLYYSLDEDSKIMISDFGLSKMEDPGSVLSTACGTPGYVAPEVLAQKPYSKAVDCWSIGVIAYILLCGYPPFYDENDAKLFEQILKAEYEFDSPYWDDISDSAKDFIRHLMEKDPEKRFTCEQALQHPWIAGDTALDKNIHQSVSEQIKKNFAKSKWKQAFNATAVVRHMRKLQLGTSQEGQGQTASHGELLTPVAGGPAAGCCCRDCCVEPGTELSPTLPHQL
Assay [27] has as its target Tyrosine-protein kinase Fyn (Homo sapiens, UniProt P06241).
For assay [28], the target named is Cyclin-dependent kinase 1 (Homo sapiens, UniProt P06493).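 Further: Kinome-wide panel profiling, with the target listed as panel member CDC2.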
Chain of Cyclin-dependent kinase 1 (P06493 whole entry): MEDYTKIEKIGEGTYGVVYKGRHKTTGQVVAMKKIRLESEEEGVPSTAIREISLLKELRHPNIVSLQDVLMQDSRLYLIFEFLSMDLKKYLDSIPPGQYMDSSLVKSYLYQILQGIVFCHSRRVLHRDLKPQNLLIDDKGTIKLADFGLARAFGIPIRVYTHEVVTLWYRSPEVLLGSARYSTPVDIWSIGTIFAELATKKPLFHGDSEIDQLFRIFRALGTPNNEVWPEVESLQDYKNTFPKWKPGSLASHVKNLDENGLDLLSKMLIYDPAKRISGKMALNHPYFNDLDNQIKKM
Assay [29] deals with Vascular endothelial growth factor receptor 1 (Homo sapiens, UniProt P17948).
The target in assay [30] is Receptor tyrosine-protein kinase erbB-4 (Homo sapiens, UniProt Q15303).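 Further: ERBB4 member of a kinome-wide kinase profiling panel.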
Assay [31] deals with Mitogen-activated protein kinase 12 (Homo sapiens, UniProt P53778).
Assay [32] concerns the target Macrophage colony-stimulating factor 1 receptor (Homo sapiens, UniProt P07333).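 Further: value comes from the Navigating the Kinome screening panel, CSF1R member.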

The source made the active and inactive calls. Where only a bound is given, the exact number is not on record here.

Chain of Cyclin-dependent kinase 5 (Q00535 whole entry): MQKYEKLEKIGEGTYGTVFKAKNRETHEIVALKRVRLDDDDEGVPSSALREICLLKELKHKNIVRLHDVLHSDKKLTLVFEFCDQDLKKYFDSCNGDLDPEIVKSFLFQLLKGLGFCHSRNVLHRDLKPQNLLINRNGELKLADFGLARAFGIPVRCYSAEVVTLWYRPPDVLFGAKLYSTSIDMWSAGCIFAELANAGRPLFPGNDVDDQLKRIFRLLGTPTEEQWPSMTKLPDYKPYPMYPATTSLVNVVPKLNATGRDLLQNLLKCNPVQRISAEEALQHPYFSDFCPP
Chain of Macrophage colony-stimulating factor 1 receptor (P07333 whole entry): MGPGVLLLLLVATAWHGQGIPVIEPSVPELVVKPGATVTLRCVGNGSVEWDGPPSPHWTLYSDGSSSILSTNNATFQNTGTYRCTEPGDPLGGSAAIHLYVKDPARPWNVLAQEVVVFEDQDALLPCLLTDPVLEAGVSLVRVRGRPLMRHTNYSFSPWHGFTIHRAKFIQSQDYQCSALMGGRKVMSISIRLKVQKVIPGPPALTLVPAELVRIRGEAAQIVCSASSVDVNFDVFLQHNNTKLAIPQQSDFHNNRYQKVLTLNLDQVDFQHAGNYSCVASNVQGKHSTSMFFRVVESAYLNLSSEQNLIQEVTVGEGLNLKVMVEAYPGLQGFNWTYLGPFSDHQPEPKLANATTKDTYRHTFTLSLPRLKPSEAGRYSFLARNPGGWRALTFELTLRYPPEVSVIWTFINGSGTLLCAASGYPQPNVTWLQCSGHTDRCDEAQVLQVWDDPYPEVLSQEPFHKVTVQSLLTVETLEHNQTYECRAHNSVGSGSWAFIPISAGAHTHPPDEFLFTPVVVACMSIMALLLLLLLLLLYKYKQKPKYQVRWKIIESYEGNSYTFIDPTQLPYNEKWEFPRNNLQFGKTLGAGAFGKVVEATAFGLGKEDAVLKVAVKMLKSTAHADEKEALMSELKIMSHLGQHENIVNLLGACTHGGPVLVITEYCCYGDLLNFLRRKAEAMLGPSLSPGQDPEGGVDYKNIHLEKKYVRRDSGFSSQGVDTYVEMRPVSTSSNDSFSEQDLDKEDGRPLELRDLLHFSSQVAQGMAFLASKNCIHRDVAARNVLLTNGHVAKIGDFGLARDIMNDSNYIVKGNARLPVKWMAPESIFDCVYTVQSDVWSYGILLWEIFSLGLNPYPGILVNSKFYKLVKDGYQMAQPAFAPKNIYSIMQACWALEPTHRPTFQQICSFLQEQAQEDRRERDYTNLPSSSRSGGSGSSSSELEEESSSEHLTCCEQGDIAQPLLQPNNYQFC
Chain of Serine/threonine-protein kinase pim-1 (P11309 whole entry): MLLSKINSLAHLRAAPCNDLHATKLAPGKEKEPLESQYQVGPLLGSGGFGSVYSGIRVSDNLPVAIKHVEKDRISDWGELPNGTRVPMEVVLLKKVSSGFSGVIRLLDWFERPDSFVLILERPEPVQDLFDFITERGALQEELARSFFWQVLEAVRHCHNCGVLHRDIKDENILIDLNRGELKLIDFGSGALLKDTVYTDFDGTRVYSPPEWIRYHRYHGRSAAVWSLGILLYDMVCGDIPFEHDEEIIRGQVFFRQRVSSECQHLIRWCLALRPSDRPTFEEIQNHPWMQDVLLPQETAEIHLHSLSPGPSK

As for `O=C(CCc1ccccc1)NNc1cc(N2CCCCC2)nc(N2CCCCC2)n1`, the EC50 in assay [1] was > 60000 nM (not active). In addition, the IC50 in [2] and in assay [3] was > 99000 nM (inactive) in each case.
Consider `Oc1ccc(N=Nc2c(O)ccc3ccccc23)cc1`, for which, in assay [4], the IC50 is 22800 nM (inactive).
As for `O=C(O)C1Nc2c(O)cc(Cl)c([N+](=O)[O-])c2C2C=CCC12` (stereo unspecified), in assay [5], the IC50 is 35400 nM (active).
Turning to `Cc1n[nH]c2ccc(-c3cncc(OCC(N)Cc4cccc(Cl)c4)c3)cc12` (stereo unspecified), the Ki was > 2000 nM (inactive) in assay [6]; 1000 nM (active) in [7]; > 1580 nM (inactive) in assay [8]; 1580 nM (active) in [9]; 25.1 nM (active) in assay [10]; 5.01 nM (active) in assay [11]. Besides, the Ki is > 1260 nM (inactive) in [12]; > 1260 nM (inactive) in assay [13]; 31.6 nM (active) in assay [14]; 3980 nM (active) in assay [15]; > 2510 nM (inactive) in assay [16]; 63.1 nM (active) in [17]. The Ki in assay [18] was > 1580 nM (inactive); in assay [19], > 631 nM (inactive); in assay [20], 12.6 nM (active); in assay [21] it was > 2000 nM (inactive); in assay [22], 25.1 nM (active); in [23], 1000 nM (active). The Ki in assay [24] was 251 nM (active); in assay [25], > 1580 nM (inactive); in assay [26], 100 nM (active); in assay [27], > 794 nM (inactive); in assay [28], 39.8 nM (active); in assay [29] it was > 398 nM (inactive). The Ki in assay [30] was > 3980 nM (inactive); in assay [31] it was 398 nM (active); in assay [32], > 2510 nM (inactive). Moreover, the pKi is on record as 7.6 in [10], 7.9 in assay [20], 7 in [26] and 7.4 in assay [28].
